Patent US9695155B2, “Herbicidal substituted pyrimidinyloxy benzene compounds” (E. I. DU PONT DE NEMOURS AND COMPANY, priority 2013, dated 2017)

Assays:
[1] = tested on: field poppy; assay: Test D preemergence; type: in vivo, Papaver rhoeas; settings: Papaver rhoeas, pre-emergence
In short: (§1)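 Visual ratings from 0 (no effect) to 100 (complete control) relative to untreated plants were taken 7–21 days after treatment. Chemicals in a surfactant-containing solvent mixture were applied preemergence to seeds in silt loam, or postemergence to plants 2–18 cm tall (1–4 leaves) grown in a peat-based potting medium.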

[2] = tested on: oilseed rape; assay: Test D preemergence; type: in vivo, Brassica napus; settings: Brassica napus, pre-emergence
In short: as §1

[3] = tested on: speedwell; assay: Test D preemergence; type: in vivo, Veronica persica; settings: Veronica persica, pre-emergence
In short: as §1

[4] = tested on: Italian ryegrass; assay: Test D postemergence; type: in vivo, Lolium multiflorum; settings: Lolium multiflorum, post-emergence
In short: as §1

[5] = tested on: wild buckwheat; assay: Test D postemergence; type: in vivo, Polygonum convolvulus; settings: Fallopia convolvulus, post-emergence, Postemergence, scale 0 to 100 (0 no effect, 100 complete control), read-out: Plant response rating, Buckwheat, Wild
In short: as §1

[6] = tested on: wild mustard; assay: Test D postemergence; type: in vivo, Sinapis arvensis; settings: Brassica, post-emergence
In short: as §1

[7] = tested on: wild oat; assay: Test D postemergence; type: in vivo, Avena fatua; settings: Avena fatua, post-emergence
In short: as §1

[8] = tested on: windgrass; assay: Test D postemergence; type: in vivo, Apera spica-venti; settings: Apera spica-venti, post-emergence
In short: as §1

[9] = tested on: large (Lg) crabgrass; assay: Test F preemergence; type: in vivo, Digitaria sanguinalis; settings: 21 days, scale 0 to 100
In short: (§2)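 Seeds are planted in a blend of loam and sand. Chemicals in a surfactant-containing non-phytotoxic solvent are applied before emergence. After 21 days under greenhouse conditions, plants are compared with controls and scored visually, 0–100.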

[10] = tested on: guineagrass; assay: Test F preemergence; type: in vivo, Panicum maximum; settings: 21 days, scale 0 to 100
In short: as §2

[11] = tested on: leafy spurge; assay: Test F preemergence; type: in vivo, Euphorbia esula; settings: 21 days, scale 0 to 100
From the text: Seeds of plant species selected from bermudagrass (Cynodon dactylon), surinam grass (Brachiaria decumbens), large (Lg) crabgrass (Digitaria sanguinalis), crabgrass, naked (naked crabgrass, Digitaria nuda), foxtail, green (green foxtail, Setaria viridis), johnsongrass (Sorghum halepense), kochia (Kochia scoparia), morningglory (pitted morningglory, Ipomoea lacunosa), nutsedge, purple (purple nutsedge, Cyperus rotundus), ragweed (common ragweed, Ambrosia elatior), mustard, black (black mustard, Brassica nigra), guineagrass (Panicum maximum), dallisgrass (Paspalum dilatatum), barnyardgrass (Echinochloa crus-galli), sandbur (southern sandbur, Cenchrus echinatus), sowthistle (common sowthistle, Sonchus oleraceous), Italian ryegrass (Lolium multiflorum), signalgrass (broadleaf signalgrass, Brachiaria platyphylla), dayflower (Virginia (VA) dayflower, Commelina virginica), bluegrass (annual bluegrass, Poa annua), quackgrass (Elytrigia repens), mallow (common mallow, Malva sylvestris), buckwheat, wild (wild buckwheat, Polygonum convolvulus), leafy spurge (Euphorbia esula), chickweed (common chickweed, Stellaria media), wild poinsettia (Euphorbia heterophylla), and pigweed (Amaranthus retroflexus) were planted into a blend of loam soil and sand and treated preemergence with test chemicals formulated in a non-phytotoxic solvent mixture which included a surfactant.
Treated plants and controls were maintained in a greenhouse for 21 days, after which time all species were compared to controls and visually evaluated. Plant response ratings, summarized in Table F, are based on a scale of 0 to 100 where 0 is no effect and 100 is complete control. A dash (-) response means no test result.

## N#Cc1cccc(Oc2ncc(Cl)cn2)c1-n1cc(OCC(F)(F)F)cn1 [Compound 274, 3-[(5-chloro-2-pyrimidinyl)oxy]-2-[4-(2,2,2-trifluoroethoxy)-1H-pyrazol-1-yl]benzonitrile]
[1]; 16 g ai/ha, scale 0 (no effect) to 100 (complete control), read-out: Plant response rating, Field Poppy
  pest or weed control at 16 g/ha: 75%
[1]; 31 g ai/ha, scale 0-100, read-out: Plant response rating, Field Poppy
  pest or weed control at 31 g/ha: 100%
[1]; 62 g ai/ha, scale 0-100, read-out: Plant response rating, Field Poppy
  pest or weed control at 62 g/ha: 100%
[1]; 125 g ai/ha, scale 0-100, read-out: Plant response rating, Field Poppy
  pest or weed control at 125 g/ha: 100%
[2]; 16 g ai/ha, scale 0 (no effect) to 100 (complete control), read-out: Plant response rating, Oilseed Rape
  plant injury at 16 g/ha: 35%
[2]; 31 g ai/ha, scale 0-100, read-out: Plant response rating, Oilseed Rape
  plant injury at 31 g/ha: 30%
[2]; 62 g ai/ha, scale 0-100, read-out: Plant response rating, Oilseed Rape
  plant injury at 62 g/ha: 65%
[2]; 125 g ai/ha, scale 0-100, read-out: Plant response rating, Oilseed Rape
  plant injury at 125 g/ha: 75%
[3]; 16 g ai/ha, scale 0 (no effect) to 100 (complete control), read-out: Plant response rating, Speedwell
  pest or weed control at 16 g/ha: 100%
[3]; 31 g ai/ha, scale 0 (no effect) to 100 (complete control), read-out: Plant response rating, Speedwell
  pest or weed control at 31 g/ha: 100%
[3]; 125 g ai/ha, scale 0-100, read-out: Plant response rating, Speedwell
  pest or weed control at 125 g/ha: 100%
[4]; 16 g ai/ha, scale 0-100, read-out: Plant response rating, Ryegrass, Italian
  pest or weed control at 16 g/ha: 15%
[4]; 31 g ai/ha, scale 0 to 100 (0 no effect, 100 complete control), read-out: Plant response rating, Ryegrass, Italian
  pest or weed control at 31 g/ha: 25%
[4]; 62 g ai/ha, scale 0 to 100 (0 no effect, 100 complete control), read-out: Plant response rating, Ryegrass, Italian
  pest or weed control at 62 g/ha: 35%
[4]; 125 g ai/ha, scale 0 to 100 (0 no effect, 100 complete control), read-out: Plant response rating, Ryegrass, Italian
  pest or weed control at 125 g/ha: 35%
[5]; 16 g ai/ha
  pest or weed control at 16 g/ha: 65%
[5]; 31 g ai/ha
  pest or weed control at 31 g/ha: 85%
[5]; 62 g ai/ha
  pest or weed control at 62 g/ha: 100%
[5]; 125 g ai/ha
  pest or weed control at 125 g/ha: 100%
[6]; 16 g ai/ha, scale 0-100, read-out: Plant response rating, Mustard, Wild
  pest or weed control at 16 g/ha: 70%
[6]; 31 g ai/ha, scale 0 to 100 (0 no effect, 100 complete control), read-out: Plant response rating, Mustard, Wild
  pest or weed control at 31 g/ha: 75%
[6]; 62 g ai/ha, scale 0 to 100 (0 no effect, 100 complete control), read-out: Plant response rating, Mustard, Wild
  pest or weed control at 62 g/ha: 100%
[6]; 125 g ai/ha, scale 0 to 100 (0 no effect, 100 complete control), read-out: Plant response rating, Mustard, Wild
  pest or weed control at 125 g/ha: 100%
[7]; 16 g ai/ha, scale 0-100, read-out: Plant response rating, Oat, Wild
  pest or weed control at 16 g/ha: 20%
[7]; 31 g ai/ha, scale 0 to 100 (0 no effect, 100 complete control), read-out: Plant response rating, Oat, Wild
  pest or weed control at 31 g/ha: 30%
[7]; 62 g ai/ha, scale 0 to 100 (0 no effect, 100 complete control), read-out: Plant response rating, Oat, Wild
  pest or weed control at 62 g/ha: 35%
[7]; 125 g ai/ha, scale 0 to 100 (0 no effect, 100 complete control), read-out: Plant response rating, Oat, Wild
  pest or weed control at 125 g/ha: 40%
[8]; 16 g ai/ha, scale 0-100, read-out: Plant response rating, Windgrass
  pest or weed control at 16 g/ha: 15%
[8]; 31 g ai/ha, scale 0 to 100 (0 no effect, 100 complete control), read-out: Plant response rating, Windgrass
  pest or weed control at 31 g/ha: 25%
[8]; 62 g ai/ha, scale 0 to 100 (0 no effect, 100 complete control), read-out: Plant response rating, Windgrass
  pest or weed control at 62 g/ha: 35%
[8]; 125 g ai/ha, scale 0 to 100 (0 no effect, 100 complete control), read-out: Plant response rating, Windgrass
  pest or weed control at 125 g/ha: 35%
[9]; 16 g ai/ha
  Plant response rating, Crabgrass, Large: 100
[9]; 31 g ai/ha
  Plant response rating, Crabgrass, Large: 100
[9]; 62 g ai/ha
  Plant response rating, Crabgrass, Large: 100
[9]; 125 g ai/ha
  Plant response rating, Crabgrass, Large: 100
[9]; 250 g ai/ha
  Plant response rating, Crabgrass, Large: 100
[10]; 16 g ai/ha
  Plant response rating, Guineagrass: 100
[10]; 31 g ai/ha
  Plant response rating, Guineagrass: 100
[10]; 62 g ai/ha
  Plant response rating, Guineagrass: 100
[10]; 125 g ai/ha
  Plant response rating, Guineagrass: 100
[10]; 250 g ai/ha
  Plant response rating, Guineagrass: 100
[11]; 16 g ai/ha
  Plant response rating, Leafy Spurge: 100
[11]; 31 g ai/ha
  Plant response rating, Leafy Spurge: 98
[11]; 62 g ai/ha
  Plant response rating, Leafy Spurge: 100
[11]; 125 g ai/ha
  Plant response rating, Leafy Spurge: 100
[11]; 250 g ai/ha
  Plant response rating, Leafy Spurge: 100
